Drawing on patent publication US12122776B2, “Tetracyclic compounds and uses thereof” (Gilead Sciences, Inc., priority 2020, dated 2024), this text covers CC50 and EC50 for 18 compounds.

Holding throughout (assay type): cell-based
Data set [1] can be described thus: Cytotoxicity assay in MT-4 cells. The note with it: human; uninfected MT-4 cells, 5 days incubation, Cell Titer Glo. The method, then:
Cytotoxicity Assay in MT-4 Cells Assays were performed as above except uninfected MT-4 cells were added to each well containing test compound. In addition, 10 μM puromycin was added to the last column of each assay plate to assess a base level of cytotoxicity.

In a further data set the test system is pLai RLuc reporter virus. Briefly: HIV MT-4 serum shift antiviral reporter assay. The following applies: Human immunodeficiency virus 1, MT4, 72 h. The method, then: Example 25: HIV MT-4 Serum Shift Antiviral Reporter Assay
To quantify the amount of protein binding to human serum, compounds were serially diluted (1:3) in DMSO and acoustically transferred onto 384-well assay plates via a Labcyte ECHO robot. Each plate contained up to 8 test compounds, including negative and positive controls, (DMSO, 5 μM AZT respectively). Assay plates were prepared in duplicate, and tested in either CCM (cell culture media) or HS/CCM (human serum/cell culture media). MT-4 cells were first pre-infected with pLai RLuc reporter virus for 2 h at 37° C., then further diluted in either CCM (RPMI media, 10% FBS, 1% P/S) or HS/CCM (RPMI media, 10% FBS, 50% HS, 1% P/S), and subsequently added to each plate using a Biotek Micro Flow dispenser. After a 72-h incubation in a humidified and temperature controlled incubator (37° C.), Renilla Glo (Promega) was added to all assay plates and chemiluminescence read using an Envision plate-reader. EC50 values were defined as the compound concentration that causes a 50% decrease in luminescence signal, and were calculated using a sigmoidal dose-response model to generate curve fits. To determine the amount of protein binding, EC50 fold shifts (or EC50 shifts) were calculated by dividing EC50 (HS/CCM)/EC50 (CCM).

Another data set concerns HIV-1 (IIIB). Briefly: Antiviral assay in MT-4 cells. The following applies: Human immunodeficiency virus 1, MT4, 120 h; replication of HIV-1 (IIIB) in MT-4 cells, 5 days incubation, Cell Titer Glo. The method, then: Example 24: HIV MT-4 Antiviral and Cytotoxicity Assay
Antiviral Assay in MT-4 Cells
Compounds were tested in a high-throughput 384-well assay format for their ability to inhibit the replication of HIV-1 (IIIB) in MT-4 cells. Compounds were serially diluted (1:3) in DMSO on 384-well polypropylene plates and further diluted 200-fold into complete RPMI media (10% FBS, 1% P/S) using the Biotek Micro Flow and Labcyte ECHO acoustic dispenser. Each plate contained up to 8 test compounds, with negative (No Drug Control) and 5 μM AZT positive controls. MT-4 cells were pre-infected with 10 μL of either RPMI (mock-infected) or a fresh 1:250 dilution of HIV-1 IIIB concentrated virus stock. Infected and uninfected MT-4 cells were further diluted in complete RPMI media and added to each plate using a Micro Flow dispenser. After 5 days incubation in a humidified and temperature controlled incubator (37° C.), Cell Titer Glo (Promega) was added to the assay plates and chemiluminescence read using an Envision plate-reader. EC50 values were defined as the compound concentration that causes a 50% decrease in luminescence signal, and were calculated using a sigmoidal dose-response model to generate curve fits.

The mark [2] stands for this setting: read-out: Antiviral Serum Shift RLuc 50% HS.
[3] abbreviates: read-out: Antiviral Serum Shift RLuc CCM.

Read-outs that look alike come from different tables or passages of the source.

Take `CO[C@H]1CC[C@H](C)N2C[C@]13CCc1c(C(=O)NCc4c(F)cc(F)cc4F)c(=O)c(O)c(n13)C2=O` [Compound 23-2, (3S,6S,6aR)-11-hydroxy-6-methoxy-3-methyl-1,10-dioxo-N-(2,4,6-trifluorobenzyl)-1,3,4,5,6,7,8,10-octahydro-2,6a-methano[1,4]diazonino[9,1,2-cd]indolizine-9-carboxamide]: half-maximal cytotoxicity in data set [1] (CC50 at 5 days) was put at 14100 nM. Further, the results for the EC50 with pLai RLuc reporter virus (setting [2]), in the data set on pLai RLuc reporter virus (setting [3]) and in the data set with HIV-1 (IIIB) were 21 nM, 0.46 nM and 2.5 nM, respectively.
`O=C(NCc1c(F)cc(F)cc1F)c1c2n3c(c(O)c1=O)C(=O)N1CCCC[C@@]3(CC2CO)C1` (stereo partly drawn) [Compound 18, (6aR)-11-hydroxy-8-(hydroxymethyl)-1,10-dioxo-N-(2,4,6-trifluorobenzyl)-1,3,4,5,6,7,8,10-octahydro-2,6a-methano[1,4]diazonino[9,1,2-cd]indolizine-9-carboxamide]: in data set [1], the CC50 at 5 days was determined as 25200 nM. Further, the EC50 in the data set on pLai RLuc reporter virus (setting [2]) turned out to be 0.97 nM; in the data set with pLai RLuc reporter virus (setting [3]), 0.87 nM; in the data set on HIV-1 (IIIB) it was 10.7 nM.
`O=C(NCc1ccc(F)cc1F)c1c2n3c(c(O)c1=O)C(=O)N1CCCC[C@@]3(C[C@H]2O)C1` (single isomer, unassigned) [Compound 10-2] gave a CC50 at 5 days in data set [1] of 4120 nM. In addition, the values for the EC50 in the data set with pLai RLuc reporter virus (setting [2]), in the data set with pLai RLuc reporter virus (setting [3]) and with HIV-1 (IIIB) were 21.1 nM, 0.417 nM and 1.05 nM, respectively.
Compound `C[C@@]1(O)C[C@]23CCCCN(C2)C(=O)c2c(O)c(=O)c(C(=O)NCc4c(F)cc(F)cc4F)c1n23` [Compound 17, (6aR,8R)-8,11-dihydroxy-8-methyl-1,10-dioxo-N-(2,4,6-trifluorobenzyl)-1,3,4,5,6,7,8,10-octahydro-2,6a-methano[1,4]diazonino[9,1,2-cd]indolizine-9-carboxamide] displayed a CC50 at 5 days in data set [1] of 3170 nM. Besides, the EC50 in the data set on pLai RLuc reporter virus (setting [2]) amounted to 1.1 nM; in the data set with pLai RLuc reporter virus (setting [3]) it was 0.13 nM; in the data set on HIV-1 (IIIB) it was 1.2 nM.
In data set [1], `O=C(NCc1ccc(F)c(Cl)c1F)c1c2n3c(c(O)c1=O)C(=O)N1CCCC[C@@]3(C[C@H]2O)C1` (single isomer, unassigned) [Compound 14-1] had a 50% cytotoxic concentration (CC50) at 5 days of 2310 nM. Besides, the EC50 in the data set on pLai RLuc reporter virus (setting [2]) came to 26 nM; in the data set with pLai RLuc reporter virus (setting [3]), 0.22 nM; in the data set with HIV-1 (IIIB), 1.1 nM.
`C[C@H]1C=CC[C@]23C[C@@H](O)c4c(C(=O)NCc5c(F)cc(F)cc5F)c(=O)c(O)c(n42)C(=O)N1C3` (single isomer, unassigned) [Compound 21-1]: the half-maximal cytotoxic concentration (CC50) at 5 days in data set [1] was found to be 4840 nM. Further, the EC50 was 27 nM with pLai RLuc reporter virus (setting [2]), 0.26 nM with pLai RLuc reporter virus (setting [3]) and 1.04 nM in the data set on HIV-1 (IIIB).
Take `O=C(NCc1c(F)cc(F)cc1F)c1c2n3c(c(O)c1=O)C(=O)N1CCCC[C@]3(C[C@@H]2O)C1` (single isomer, unassigned) [Compound 9-3]: in data set [1], the CC50 at 5 days was 6310 nM. Besides, the EC50 in the data set on pLai RLuc reporter virus (setting [2]) stood at 28.5 nM; with pLai RLuc reporter virus (setting [3]), 0.384 nM; with HIV-1 (IIIB) it was 1.06 nM.
In turn, `O=C(NCc1c(F)cc(F)cc1F)c1c2n3c(c(O)c1=O)C(=O)N1CCCC[C@@]3(CC2)C1` [Compound 1, (6aR)-11-hydroxy-1,10-dioxo-N-(2,4,6-trifluorobenzyl)-1,3,4,5,6,7,8,10-octahydro-2,6a-methano[1,4]diazonino[9,1,2-cd]indolizine-9-carboxamide] yielded a half-maximal cytotoxic concentration (CC50) at 5 days in data set [1] of 4300 nM. The EC50 in the data set with pLai RLuc reporter virus (setting [2]) turned out to be 8.71 nM; with pLai RLuc reporter virus (setting [3]), 0.299 nM; with HIV-1 (IIIB), 1.35 nM.
For `CO[C@@H]1C[C@@]23CCCCN(C2)C(=O)c2c(O)c(=O)c(C(=O)NCc4c(F)cc(F)cc4F)c1n23` (single isomer, unassigned) [Compound 12-1], the half-maximal cytotoxic concentration (CC50) at 5 days in data set [1] is 9690 nM. The EC50 with pLai RLuc reporter virus (setting [2]) is 16.9 nM; in the data set on pLai RLuc reporter virus (setting [3]), 0.77 nM; with HIV-1 (IIIB) it was 1.54 nM.
The compound `C[C@]1(O)C[C@@]23CCCCN(C2)C(=O)c2c(O)c(=O)c(C(=O)NCc4c(F)cc(F)cc4F)c1n23` (single isomer, unassigned) [Compound 15] registered a 50% cytotoxic concentration (CC50) at 5 days in data set [1] of 3730 nM. Also, the figures for the EC50 in the data set on pLai RLuc reporter virus (setting [2]), in the data set with pLai RLuc reporter virus (setting [3]) and in the data set with HIV-1 (IIIB) were 51 nM, 0.29 nM and 1.2 nM, respectively.
As for `C[C@H]1C=CC[C@]23C[C@H](O)c4c(C(=O)NCc5c(F)cc(F)cc5F)c(=O)c(O)c(n42)C(=O)N1C3` (single isomer, unassigned) [Compound 21-2], the cytotoxic concentration (CC50) at 5 days in data set [1] was 5370 nM. In addition, the EC50 amounted to 12 nM in the data set with pLai RLuc reporter virus (setting [2]), 0.27 nM in the data set with pLai RLuc reporter virus (setting [3]) and 0.8 nM in the data set on HIV-1 (IIIB).
`O=C(NCc1cccc(Cl)c1F)c1c2n3c(c(O)c1=O)C(=O)N1CCCC[C@@]3(CC2)C1` [Compound 5, (6aR)—N-(3-chloro-2-fluorobenzyl)-11-hydroxy-1,10-dioxo-1,3,4,5,6,7,8,10-octahydro-2,6a-methano[1,4]diazonino[9,1,2-cd]indolizine-9-carboxamide] yielded a CC50 at 5 days in data set [1] of 4040 nM. The figures for the EC50 in the data set on pLai RLuc reporter virus (setting [2]), in the data set on pLai RLuc reporter virus (setting [3]) and with HIV-1 (IIIB) were 6.04 nM, 0.278 nM and 2.24 nM, respectively.
Take `O=C(NCc1ccc(F)cc1F)c1c2n3c(c(O)c1=O)C(=O)N1CCCC[C@]3(CC2)C1` [Compound 4, (6aS)—N-(2,4-difluorobenzyl)-11-hydroxy-1,10-dioxo-1,3,4,5,6,7,8,10-octahydro-2,6a-methano[1,4]diazonino[9,1,2-cd]indolizine-9-carboxamide]: the half-maximal cytotoxic concentration (CC50) at 5 days in data set [1] turned out to be 5140 nM. In addition, the results for the EC50 with pLai RLuc reporter virus (setting [2]), with pLai RLuc reporter virus (setting [3]) and in the data set on HIV-1 (IIIB) were 32.3 nM, 0.72 nM and 3.09 nM, respectively.
Regarding `O=C(NCc1ccc(F)cc1F)c1c2n3c(c(O)c1=O)C(=O)N1CCCC[C@@]3(C[C@@H]2O)C1` (single isomer, unassigned) [Compound 10-4], in data set [1], the CC50 at 5 days came to 4610 nM. For the same compound, the results for the EC50 in the data set with pLai RLuc reporter virus (setting [2]), in the data set on pLai RLuc reporter virus (setting [3]) and in the data set with HIV-1 (IIIB) were 3.3 nM, 0.405 nM and 2.47 nM, respectively.
For `C[C@H]1C=CC[C@]23CCc4c(C(=O)NCc5c(F)cc(F)cc5F)c(=O)c(O)c(n42)C(=O)N1C3` [Compound 20, (3S,6aS)-11-hydroxy-3-methyl-1,10-dioxo-N-(2,4,6-trifluorobenzyl)-1,3,6,7,8,10-hexahydro-2,6a-methano[1,4]diazonino[9,1,2-cd]indolizine-9-carboxamide] the same measures were 3340 nM, 16 nM, 0.31 nM and 0.83 nM.
Turning to `O=C(NCc1ccc(F)cc1F)c1c2n3c(c(O)c1=O)C(=O)N1CCCC[C@]3(C[C@@H]2O)C1` (single isomer, unassigned) [Compound 10-3], half-maximal cytotoxicity in data set [1] (CC50 at 5 days) was put at 9470 nM. In addition, the EC50 in the data set on pLai RLuc reporter virus (setting [2]) was 25.6 nM; in the data set on pLai RLuc reporter virus (setting [3]) it was 0.632 nM; in the data set with HIV-1 (IIIB) it was 3.31 nM.
For the compound `O=C(NCc1c(F)cc(F)cc1F)c1c2n3c(c(O)c1=O)C(=O)N1CCCC[C@@]3(C[C@@H]2O)C1` (single isomer, unassigned) [Compound 9-4], the cytotoxic concentration (CC50) at 5 days in data set [1] was 6400 nM. Further, the values for the EC50 in the data set on pLai RLuc reporter virus (setting [2]), in the data set with pLai RLuc reporter virus (setting [3]) and in the data set with HIV-1 (IIIB) were 5.19 nM, 0.388 nM and 0.703 nM, respectively.
On to `O=C(NCc1c(F)cc(F)cc1F)c1c2n3c(c(O)c1=O)C(=O)N1CCCC[C@@]3(C[C@H]2O)C1` (single isomer, unassigned) [Compound 9-2], for which it took 5170 nM to reach half-maximal cytotoxicity in data set [1] (CC50 at 5 days). The results for the EC50 in the data set on pLai RLuc reporter virus (setting [2]), in the data set on pLai RLuc reporter virus (setting [3]) and in the data set with HIV-1 (IIIB) were 34.1 nM, 0.347 nM and 1.23 nM, respectively.
